Results on one molecule are retold here after publication PMC7915588, “Polyphyllin D Shows Anticancer Effect through a Selective Inhibition of Src Homology Region 2-Containing Protein Tyrosine Phosphatase-2 (SHP2)” (Molecules, 2021).

The target of one experiment is T1, SHP2 (Homo sapiens, UniProt Q06124).
T1 construct: gene PTPN11
T1 sequence (Q06124 1-526): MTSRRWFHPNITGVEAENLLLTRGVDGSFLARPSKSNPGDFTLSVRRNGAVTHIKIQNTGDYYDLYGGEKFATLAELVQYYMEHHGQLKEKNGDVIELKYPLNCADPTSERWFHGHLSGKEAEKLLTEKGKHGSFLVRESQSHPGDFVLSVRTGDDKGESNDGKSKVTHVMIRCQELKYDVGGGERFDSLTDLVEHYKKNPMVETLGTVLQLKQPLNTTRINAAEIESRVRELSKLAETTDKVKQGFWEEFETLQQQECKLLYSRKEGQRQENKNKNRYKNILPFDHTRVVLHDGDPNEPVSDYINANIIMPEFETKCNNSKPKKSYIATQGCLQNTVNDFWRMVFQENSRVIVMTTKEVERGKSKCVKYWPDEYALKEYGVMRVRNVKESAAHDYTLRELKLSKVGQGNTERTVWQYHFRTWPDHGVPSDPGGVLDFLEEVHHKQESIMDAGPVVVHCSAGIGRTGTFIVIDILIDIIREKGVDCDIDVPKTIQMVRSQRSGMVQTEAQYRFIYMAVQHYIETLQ
Nature of the experiment: DiFMUP fluorogenic phosphatase assay, dose-response and Hill plot. It counts as biochemical.

Another experiment has as its target T2, PTPN23 (HD-PTP) (Homo sapiens, UniProt Q9H3S7).
T2 construct: 1179-1463
Nature of the experiment: biochemical. On the set-up: Fluorogenic phosphatase assay, DiFMUP hydrolysis by recombinant PTPs, initial velocity, Ex/Em 355/460 nm. Conditions: read-out: Inhibition by 20 µM polyphyllin D (%).

Another experiment concerns the target T3, PTPN7 (HePTP) (Homo sapiens, UniProt P35236).
T3 construct: 1-360
T3 sequence (P35236 1-360): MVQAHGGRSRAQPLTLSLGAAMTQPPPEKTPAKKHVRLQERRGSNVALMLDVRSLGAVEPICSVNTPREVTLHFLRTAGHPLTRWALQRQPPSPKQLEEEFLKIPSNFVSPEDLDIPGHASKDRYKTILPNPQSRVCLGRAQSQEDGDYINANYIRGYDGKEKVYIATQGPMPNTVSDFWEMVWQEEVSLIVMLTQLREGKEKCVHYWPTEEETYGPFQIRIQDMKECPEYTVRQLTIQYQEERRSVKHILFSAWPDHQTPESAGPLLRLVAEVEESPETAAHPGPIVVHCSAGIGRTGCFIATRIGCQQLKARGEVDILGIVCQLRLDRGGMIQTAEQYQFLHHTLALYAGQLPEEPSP
The experiment in a line: biochemical. Conditions: read-out: Inhibition by 20 µM polyphyllin D (%). On the set-up: Fluorogenic phosphatase assay, DiFMUP hydrolysis by recombinant PTPs, initial velocity, Ex/Em 355/460 nm.

Each structure is given as a SMILES string. pIC50: −log10 of the molar value.

T2 sequence (Q9H3S7 whole entry): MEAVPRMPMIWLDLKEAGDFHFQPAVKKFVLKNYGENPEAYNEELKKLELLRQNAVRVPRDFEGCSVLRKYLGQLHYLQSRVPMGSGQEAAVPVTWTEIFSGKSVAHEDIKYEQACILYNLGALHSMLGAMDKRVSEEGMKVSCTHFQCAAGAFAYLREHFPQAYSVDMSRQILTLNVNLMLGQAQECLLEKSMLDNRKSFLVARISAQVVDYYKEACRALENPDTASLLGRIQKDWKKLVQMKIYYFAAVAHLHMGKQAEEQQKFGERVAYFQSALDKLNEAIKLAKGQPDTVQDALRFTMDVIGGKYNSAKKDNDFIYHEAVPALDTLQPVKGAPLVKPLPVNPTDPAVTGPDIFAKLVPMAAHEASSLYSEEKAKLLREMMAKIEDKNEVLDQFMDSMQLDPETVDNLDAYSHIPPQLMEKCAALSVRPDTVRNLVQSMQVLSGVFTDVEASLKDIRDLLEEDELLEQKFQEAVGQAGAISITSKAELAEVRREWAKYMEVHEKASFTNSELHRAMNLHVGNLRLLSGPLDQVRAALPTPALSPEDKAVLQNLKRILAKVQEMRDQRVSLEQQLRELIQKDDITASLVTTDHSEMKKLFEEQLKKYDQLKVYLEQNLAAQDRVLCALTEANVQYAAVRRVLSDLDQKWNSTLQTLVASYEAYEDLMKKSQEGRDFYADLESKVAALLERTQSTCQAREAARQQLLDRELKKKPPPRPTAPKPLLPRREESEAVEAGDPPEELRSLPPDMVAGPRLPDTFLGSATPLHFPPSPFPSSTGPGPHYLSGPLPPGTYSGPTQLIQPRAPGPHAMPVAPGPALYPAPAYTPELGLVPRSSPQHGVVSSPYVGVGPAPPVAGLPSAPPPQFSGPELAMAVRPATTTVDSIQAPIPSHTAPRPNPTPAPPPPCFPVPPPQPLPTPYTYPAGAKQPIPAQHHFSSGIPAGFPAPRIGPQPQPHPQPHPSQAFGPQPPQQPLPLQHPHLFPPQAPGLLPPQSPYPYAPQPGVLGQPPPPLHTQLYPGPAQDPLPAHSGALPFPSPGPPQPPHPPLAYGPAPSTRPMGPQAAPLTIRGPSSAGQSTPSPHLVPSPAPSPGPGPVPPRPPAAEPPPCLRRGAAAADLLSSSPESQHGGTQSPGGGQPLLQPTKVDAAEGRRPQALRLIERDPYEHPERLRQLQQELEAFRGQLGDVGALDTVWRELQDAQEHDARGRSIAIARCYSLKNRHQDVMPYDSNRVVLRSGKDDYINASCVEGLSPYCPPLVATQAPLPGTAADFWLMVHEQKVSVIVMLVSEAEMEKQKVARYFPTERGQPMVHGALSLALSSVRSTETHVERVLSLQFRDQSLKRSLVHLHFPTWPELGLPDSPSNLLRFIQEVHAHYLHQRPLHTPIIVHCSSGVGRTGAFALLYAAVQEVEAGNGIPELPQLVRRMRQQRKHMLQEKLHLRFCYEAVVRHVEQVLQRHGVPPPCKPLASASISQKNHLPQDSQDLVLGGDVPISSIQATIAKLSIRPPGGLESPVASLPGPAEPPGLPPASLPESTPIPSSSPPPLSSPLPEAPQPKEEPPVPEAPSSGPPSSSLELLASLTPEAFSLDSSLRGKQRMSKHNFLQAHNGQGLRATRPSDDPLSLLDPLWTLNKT

As for `C[C@@H]1CC[C@@]2(OC1)O[C@H]1C[C@H]3[C@@H]4CC=C5C[C@@H](O[C@@H]6O[C@H](CO)[C@@H](O[C@@H]7O[C@@H](CO)[C@H](O)[C@H]7O)[C@H](O)[C@H]6O[C@@H]6O[C@@H](C)[C@H](O)[C@@H](O)[C@H]6O)CC[C@]5(C)[C@H]4CC[C@]3(C)[C@H]1[C@@H]2C` [polyphyllin D], on SHP2, the pIC50 (commonly the IC50 on a negative log10 scale, so that one unit is a factor of ten) is 4.82. For the same molecule, the figures for the inhibition at 20 µM at PTPN23 (HD-PTP) and on PTPN7 (HePTP) were 0% and 9.2%, respectively.
